Data reported in patent publication US20260042755A1, “GPR6 INVERSE AGONISTS” (MapLight Therapeutics, Inc., priority 2022, published 2026).

Tests used:
GPR3 = molecular target: T1, GPR3 (Homo sapiens, UniProt P46089); test: GPR3 antagonist functional cAMP assay (LANCE Ultra cAMP TR-FRET, CHO cells stably expressing GPR3); type: cell-based
T1 construct: expressed in transfected cells; host or cells: CHO cells
How it was run: (§1)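 We measure cAMP by TR-FRET (665 nm) in cells held in glucose-containing Krebs-Ringer buffer with BSA and a PDE inhibitor, after a 45 min, 37 °C compound incubation. IC50s derive from a four-parameter logistic fit.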

GPR6 = molecular target: T2, GPR6 (Homo sapiens, UniProt P46095); test: GPR6 antagonist functional cAMP assay (LANCE Ultra cAMP TR-FRET, CHO cells stably expressing GPR6); type: cell-based
T2 construct: expressed in transfected cells; host or cells: CHO cells
How it was run: as §1

[1] = CHO cells stably expressing GPR3, cAMP assay (Example 24)
[2] = CHO cells stably expressing GPR6, cAMP assay (Example 24)
[3] = CHO cells stably expressing GPR3, cAMP assay
[4] = CHO cells stably expressing GPR6, cAMP assay

T2 sequence (P46095 whole entry): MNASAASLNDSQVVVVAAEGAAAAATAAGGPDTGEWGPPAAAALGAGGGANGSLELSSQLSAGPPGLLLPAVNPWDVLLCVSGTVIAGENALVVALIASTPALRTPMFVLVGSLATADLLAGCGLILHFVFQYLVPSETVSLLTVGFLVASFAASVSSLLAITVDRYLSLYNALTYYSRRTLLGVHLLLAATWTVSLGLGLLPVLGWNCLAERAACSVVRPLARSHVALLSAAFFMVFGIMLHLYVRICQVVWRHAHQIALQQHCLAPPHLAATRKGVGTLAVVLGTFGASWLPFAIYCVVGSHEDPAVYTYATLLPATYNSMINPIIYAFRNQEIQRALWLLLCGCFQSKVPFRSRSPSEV
T1 sequence (P46089 whole entry, species assumed): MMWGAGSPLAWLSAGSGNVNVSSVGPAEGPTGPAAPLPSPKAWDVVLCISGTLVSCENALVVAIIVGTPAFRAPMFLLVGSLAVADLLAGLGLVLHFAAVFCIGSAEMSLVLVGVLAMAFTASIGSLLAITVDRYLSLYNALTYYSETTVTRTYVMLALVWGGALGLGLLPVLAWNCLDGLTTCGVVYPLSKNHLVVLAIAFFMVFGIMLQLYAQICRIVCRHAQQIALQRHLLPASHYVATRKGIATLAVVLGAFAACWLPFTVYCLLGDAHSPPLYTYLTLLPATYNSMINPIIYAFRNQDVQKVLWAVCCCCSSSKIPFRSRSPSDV

Row | SMILES | IC50 (GPR3; [1]) [nM] | IC50 (GPR6; [2]) [nM] | IC50 (GPR3; procedure of Example 24) [nM] | IC50 (GPR6; procedure of Example 24) [nM] | further results
1 | CNC(CO)c1cc2nc(N3CCC(Oc4ccc(F)cc4F)CC3)c(-c3cnn(C)c3)nc2cn1 (stereo not drawn) [Compound 442, 2-{2-[4-(2,4-difluorophenoxy)piperidin-1-yl]-3-(1-methyl-1H-pyrazol-4-yl)pyrido[3,4-b]pyrazin-7-yl}-2-(methylamino)ethan-1-ol] | 1000 to 30000 | 1000 to 30000 | – | – | –
2 | CC(C)(O)[C@@](C)(O)c1cc2nc(N3CCN(Cc4ccc(F)cc4F)CC3)c(-c3cnn(C(F)F)c3)nc2cn1 (single isomer, unassigned) [Compound 695] | – | – | 1000 to 30000 | 100 to 1000 | –
3 | CCn1cc(-c2nc3cnc([C@@](C)(O)C(C)(C)O)cc3nc2N2CCC(Oc3ccc(F)cc3F)CC2)cn1 (single isomer, unassigned) [Compound 736] | – | – | 1000 to 30000 | 100 to 1000 | –
4 | CCOc1cncc(-c2nc3c(nc2N2CCC(Oc4ccc(F)cc4F)CC2)CCN(C(C)=O)C3)n1 [Compound 233, 1-{2-[4-(2,4-difluorophenoxy)piperidin-1-yl]-3-(6-ethoxypyrazin-2-yl)-5H,6H,7H,8H-pyrido[3,4-b]pyrazin-6-yl}ethan-1-one] | 1000 to 30000 | 1000 to 30000 | – | – | –
5 | CC(=O)N1CCc2nc(N3CCC(Oc4ccc(F)cc4F)CC3)c(-c3cnc[nH]3)nc2C1 [Compound 84, 1-{2-[4-(2,4-difluorophenoxy)piperidin-1-yl]-3-(1H-imidazol-5-yl)-5H,6H,7H,8H-pyrido[3,4-b]pyrazin-6-yl}ethan-1-one] | 1000 to 30000 | 1000 to 30000 | – | – | –
6 | CC(C)(O)C(O)c1cc2nc(-c3cnn(C(F)F)c3)c(N3CCC(Oc4ccc(F)cc4F)CC3)nc2cn1 (single isomer, unassigned) [Compound 583] | – | – | – | – | IC50 (GPR3; [3]): 1000 to 30000 nM; IC50 (GPR6; [4]): < 100 nM
7 | CC(C)(O)C(O)c1cc2nc(-c3cnn(CF)c3)c(N3CCC(Oc4ccc(F)cc4F)CC3)nc2cn1 (single isomer, unassigned) [Compound 593] | – | – | – | – | IC50 (GPR3; [3]): 100 to 1000 nM; IC50 (GPR6; [4]): < 100 nM
8 | Cn1cc(-c2nc3cnc([C@@H](O)C(C)(C)O)cc3nc2N2CCC(Oc3ccc(F)cc3F)CC2)cn1 (single isomer, unassigned) [Compound 379, (Rel-R)-1-(2-(4-(2,4-difluorophenoxy)piperidin-1-yl)-3-(1-methyl-1H-pyrazol-4-yl)pyrido[3,4-b]pyrazin-7-yl)-2-methylpropane-1,2-diol] | 1000 to 30000 | 100 to 1000 | – | – | –
9 | Fc1ccc(OC2CCN(c3nc4ccncc4nc3-c3ncn[nH]3)CC2)c(F)c1 [Compound 96, 4-(2,4-difluorophenoxy)-1-[3-(1H-1,2,4-triazol-5-yl)pyrido[3,4-b]pyrazin-2-yl]piperidine] | 1000 to 30000 | 1000 to 30000 | – | – | –
10 | FCn1cc(-c2nc3cc(Cl)ncc3nc2N2CCN(Cc3ccc(F)cc3F)CC2)cn1 [Compound 761, 7-chloro-3-{4-[(2,4-difluorophenyl)methyl]-1-piperazinyl}-2-[1-(fluoromethyl)-4-pyrazolyl]-1,4,6-triazanaphthalene] | – | – | 1000 to 30000 | 100 to 1000 | –
11 | CC(=O)N1CCc2nc(N3CCN(Cc4ccc(Cl)cc4Cl)CC3)c(-c3cnn(C)c3)nc2C1 [Compound 350, 1-(2-{4-[(2,4-dichlorophenyl)methyl]piperazin-1-yl}-3-(1-methyl-1H-pyrazol-4-yl)-5H,6H,7H,8H-pyrido[3,4-b]pyrazin-6-yl)ethan-1-one] | – | – | 1000 to 30000 | 1000 to 30000 | –
12 | COCn1ccnc1-c1nc2c(nc1N1CCC(Oc3ccc(F)cc3F)CC1)CCN(C(C)=O)C2 [Compound 67, 1-{2-[4-(2,4-difluorophenoxy)piperidin-1-yl]-3-[1-(methoxymethyl)-1H-imidazol-2-yl]-5H,6H,7H,8H-pyrido[3,4-b]pyrazin-6-yl}ethan-1-one] | 1000 to 30000 | 1000 to 30000 | – | – | –
13 | CC(C)(O)C(C)(O)c1cc2nc(N3CCN(Cc4ccccc4F)CC3)c(-c3cnn(CF)c3)nc2cn1 (stereo not drawn) [Compound 622, 2-{3-[1-(fluoromethyl)-4-pyrazolyl]-2-{4-[(o-fluorophenyl)methyl]-1-piperazinyl}-1,4,6-triaza-7-naphthyl}-3-methyl-2,3-butanediol] | – | – | 1000 to 30000 | 100 to 1000 | –
14 | CC(=O)N1CCc2nc(N3CCC(Oc4ccc(F)cc4F)CC3)c(-c3cnn([C@@H](C)C#N)c3)nc2C1 (single isomer, unassigned) [Compound 271] | – | – | 1000 to 30000 | 100 to 1000 | –
15 | Cn1cc(-c2nc3cnc(N)cc3nc2N2CCN(Cc3ccc(F)cc3F)CC2)cn1 [Compound 226, 2-{4-[(2,4-difluorophenyl)methyl]piperazin-1-yl}-3-(1-methyl-1H-pyrazol-4-yl)pyrido[3,4-b]pyrazin-7-amine] | 1000 to 30000 | < 100 | – | – | –
16 | CC(C)(C)OC(=O)N1CC(C(=O)N2CCc3nc(N4CCC(Oc5ccc(F)cc5F)CC4)c(-c4cnn(C5CCCCO5)c4)nc3C2)C1 (stereo not drawn) [Compound 152, tert-butyl 3-{2-[4-(2,4-difluorophenoxy)piperidin-1-yl]-3-[1-(oxan-2-yl)-1H-pyrazol-4-yl]-5H,6H,7H,8H-pyrido[3,4-b]pyrazine-6-carbonyl}azetidine-1-carboxylate] | 1000 to 30000 | 1000 to 30000 | – | – | –
17 | CCOC(=O)N1CCc2nc(N3CCC(Oc4ccc(F)cc4F)CC3)c(-c3cnn(CC)c3)nc2C1 [Compound 299, ethyl 2-[4-(2,4-difluorophenoxy)piperidin-1-yl]-3-(1-ethyl-1H-pyrazol-4-yl)-5H,6H,7H,8H-pyrido[3,4-b]pyrazine-6-carboxylate] | – | – | 1000 to 30000 | < 100 | –
18 | CC(=O)N1CCc2nc(-c3cccc(=O)[nH]3)c(N3CCC(Oc4ccc(F)cc4F)CC3)nc2C1 [Compound 167, 6-{6-acetyl-3-[4-(2,4-difluorophenoxy)piperidin-1-yl]-5H,6H,7H,8H-pyrido[3,4-b]pyrazin-2-yl}-1,2-dihydropyridin-2-one] | 1000 to 30000 | 1000 to 30000 | – | – | –
19 | CC(=O)N1CCc2nc(N3CCC(Oc4cc(F)ccc4F)C3)c(-c3cnn(C)c3)nc2C1 (stereo not drawn) [Compound 342, 1-{2-[3-(2,5-difluorophenoxy)pyrrolidin-1-yl]-3-(1-methyl-1H-pyrazol-4-yl)-5H,6H,7H,8H-pyrido[3,4-b]pyrazin-6-yl}ethan-1-one] | – | – | 100 to 1000 | 1000 to 30000 | –
20 | CC(C)(O)[C@@H](O)c1cc2nc(N3CCC(=Cc4ccc(F)cc4F)CC3)c(-c3cnn(C4CC4)c3)nc2cn1 (single isomer, unassigned) [Compound 769] | – | – | 1000 to 30000 | 100 to 1000 | –
21 | COc1cccc(-c2nc3cnccc3nc2N2CCC(Oc3ccc(F)cc3F)CC2)n1 [Compound 102, 2-{2-[4-(2,4-difluorophenoxy)piperidin-1-yl]pyrido[3,4-b]pyrazin-3-yl}-6-methoxypyridine] | 1000 to 30000 | 100 to 1000 | – | – | –
22 | CC(=O)N1CCc2nc(N3CCC(Oc4c(F)ccc(F)c4F)CC3)c(-c3cnn(C)c3)nc2C1 [Compound 455, 1-[3-(1-methyl-1H-pyrazol-4-yl)-2-[4-(2,3,6-trifluorophenoxy)piperidin-1-yl]-5H,6H,7H,8H-pyrido[3,4-b]pyrazin-6-yl]ethan-1-one] | 1000 to 30000 | 1000 to 30000 | – | – | –
23 | CC(=O)N1CCc2nc(N3CCC(Oc4ccc(F)cc4F)CC3)c(-c3ccnc(C)n3)nc2C1 [Compound 435, 1-{2-[4-(2,4-difluorophenoxy)piperidin-1-yl]-3-(2-methylpyrimidin-4-yl)-5H,6H,7H,8H-pyrido[3,4-b]pyrazin-6-yl}ethan-1-one] | 1000 to 30000 | 100 to 1000 | – | – | –
24 | CC(=O)N1CCc2nc(N3CCN(Cc4cc(Cl)ccc4Cl)CC3)c(-c3cnn(C)c3)nc2C1 [Compound 281, 1-(2-{4-[(2,5-dichlorophenyl)methyl]piperazin-1-yl}-3-(1-methyl-1H-pyrazol-4-yl)-5H,6H,7H,8H-pyrido[3,4-b]pyrazin-6-yl)ethan-1-one] | – | – | 1000 to 30000 | < 100 | –
25 | CNC(=O)CN1CCc2nc(N3CCC(Oc4ccc(F)cc4F)CC3)c(-c3cnn(C4CCCCO4)c3)nc2C1 (stereo not drawn) [Compound 144, 2-{2-[4-(2,4-difluorophenoxy)piperidin-1-yl]-3-[1-(oxan-2-yl)-1H-pyrazol-4-yl]-5H,6H,7H,8H-pyrido[3,4-b]pyrazin-6-yl}-N-methylacetamide] | 1000 to 30000 | 1000 to 30000 | – | – | –
26 | COCc1cccc(-c2nc3c(nc2N2CCC(Oc4ccc(F)cc4F)CC2)CCN(C(C)=O)C3)n1 [Compound 161, 1-{2-[4-(2,4-difluorophenoxy)piperidin-1-yl]-3-[6-(methoxymethyl)pyridin-2-yl]-5H,6H,7H,8H-pyrido[3,4-b]pyrazin-6-yl}ethan-1-one] | 1000 to 30000 | 1000 to 30000 | – | – | –
27 | COc1cncc(-c2nc3cnc(C(O)C(C)(C)O)cc3nc2N2CCN(Cc3ccc(F)cc3F)CC2)n1 (single isomer, unassigned) [Compound 94, 1-(2-(4-(2,4-difluorobenzyl)piperazin-1-yl)-3-(6-methoxypyrazin-2-yl)pyrido[3,4-b]pyrazin-7-yl)-2-methylpropane-1,2-diol] | 1000 to 30000 | 1000 to 30000 | – | – | –
28 | CC(=O)N1CCc2nc(N3CCC(=C(C)c4ccc(F)cc4F)CC3)c(-c3cnn(C)c3)nc2C1 [Compound 718, 1-(2-{4-[1-(2,4-difluorophenyl)ethylidene]-1-piperidyl}-3-(1-methyl-4-pyrazolyl)-5,6,7,8-tetrahydro-1,4,6-triaza-6-naphthyl)-1-ethanone] | – | – | 1000 to 30000 | 1000 to 30000 | –
29 | COC[C@H](O)c1cc2nc(N3CCC(Oc4ccc(F)cc4F)CC3)c(-c3cnn(C)c3)nc2cn1 (single isomer, unassigned) [Compound 643] | – | – | 1000 to 30000 | < 100 | –
30 | CC(C)(O)C(O)c1cncc2nc(-c3cnn(C(F)F)c3)c(N3CCN(Cc4ccc(F)cc4F)CC3)nc12 (stereo not drawn) [Compound 679, 1-{3-[1-(difluoromethyl)-4-pyrazolyl]-2-{4-[(2,4-difluorophenyl)methyl]-1-piperazinyl}-1,4,6-triaza-8-naphthyl}-2-methyl-1,2-propanediol] | – | – | 1000 to 30000 | 1000 to 30000 | –
